Reference: ChEMBL document CHEMBL4024756, “Identification of 4-Phenoxyquinoline Based Inhibitors for L1196M Mutant of Anaplastic Lymphoma Kinase by Structure-Based Design” (J Med Chem, 2017)
Activity calls are given as the source filed them. The rule behind the calls is not given here.

Tested on: ALK tyrosine kinase receptor (Homo sapiens), Q9UM73 [L1196M]
Sequence (Q9UM73 whole entry L1196M, looked up): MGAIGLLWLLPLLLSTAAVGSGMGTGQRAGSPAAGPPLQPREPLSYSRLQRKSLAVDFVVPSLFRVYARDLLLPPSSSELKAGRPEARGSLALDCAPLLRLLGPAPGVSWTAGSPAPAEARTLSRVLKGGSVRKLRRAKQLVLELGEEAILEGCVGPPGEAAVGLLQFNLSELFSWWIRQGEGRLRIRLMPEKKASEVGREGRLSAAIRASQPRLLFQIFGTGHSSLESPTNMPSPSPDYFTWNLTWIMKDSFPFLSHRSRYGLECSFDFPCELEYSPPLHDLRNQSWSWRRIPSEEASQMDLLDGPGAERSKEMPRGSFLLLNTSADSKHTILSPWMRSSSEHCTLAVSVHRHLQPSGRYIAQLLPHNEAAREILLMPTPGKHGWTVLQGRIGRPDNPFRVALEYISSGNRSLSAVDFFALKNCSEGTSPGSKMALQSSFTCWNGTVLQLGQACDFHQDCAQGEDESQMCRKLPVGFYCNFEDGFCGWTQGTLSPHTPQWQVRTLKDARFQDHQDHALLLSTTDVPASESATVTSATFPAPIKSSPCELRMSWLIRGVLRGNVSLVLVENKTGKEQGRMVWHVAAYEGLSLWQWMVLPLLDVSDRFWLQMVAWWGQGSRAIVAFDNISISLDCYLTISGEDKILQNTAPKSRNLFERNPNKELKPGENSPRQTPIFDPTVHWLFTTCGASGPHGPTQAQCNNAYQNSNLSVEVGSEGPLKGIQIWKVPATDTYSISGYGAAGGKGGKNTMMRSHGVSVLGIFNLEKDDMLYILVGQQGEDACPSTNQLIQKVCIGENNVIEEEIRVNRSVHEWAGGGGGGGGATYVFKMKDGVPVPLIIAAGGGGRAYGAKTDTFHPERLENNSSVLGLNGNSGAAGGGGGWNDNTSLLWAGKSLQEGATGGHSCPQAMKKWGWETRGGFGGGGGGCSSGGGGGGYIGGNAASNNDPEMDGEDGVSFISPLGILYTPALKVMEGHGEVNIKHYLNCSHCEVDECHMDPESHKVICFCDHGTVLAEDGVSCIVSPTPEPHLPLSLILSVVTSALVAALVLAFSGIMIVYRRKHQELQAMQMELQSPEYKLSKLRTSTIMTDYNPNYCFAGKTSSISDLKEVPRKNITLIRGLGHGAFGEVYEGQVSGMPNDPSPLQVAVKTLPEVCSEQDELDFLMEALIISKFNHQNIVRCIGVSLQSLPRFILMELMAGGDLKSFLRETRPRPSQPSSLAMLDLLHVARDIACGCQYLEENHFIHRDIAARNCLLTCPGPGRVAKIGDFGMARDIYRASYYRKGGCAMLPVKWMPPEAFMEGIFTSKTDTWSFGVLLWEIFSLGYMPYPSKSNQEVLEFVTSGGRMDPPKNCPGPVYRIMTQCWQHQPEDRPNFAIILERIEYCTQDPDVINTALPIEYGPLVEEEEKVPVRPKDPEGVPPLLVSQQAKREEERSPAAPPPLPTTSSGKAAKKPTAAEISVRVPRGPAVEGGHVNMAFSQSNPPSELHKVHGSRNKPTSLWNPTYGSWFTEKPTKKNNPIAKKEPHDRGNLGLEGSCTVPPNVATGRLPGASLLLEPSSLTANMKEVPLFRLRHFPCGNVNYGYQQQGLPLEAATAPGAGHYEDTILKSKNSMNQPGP

For Cc1ccc(Oc2ccnc3cc(-c4cnn(C5CCNCC5)c4)ccc23)cc1, the TDI was “inactive”.
